Data from patent publication US20250186600A1, “EXCIPIENT COMPOUNDS FOR PROTEIN FORMULATIONS” (Comera Life Sciences, Inc., priority 2020, published 2025).
Values joined by “and” are separate entries in the source; they are usually repeats but may differ in a detail not shown here. Identical values can stand only once. Counter-ions that a name gives are not always drawn.

What was measured:
[1] = test system: omalizumab; experiment: DLS viscosity of concentrated omalizumab (Example 54); assay type: physicochemical; conditions: concentrated omalizumab 9 parts : 1 part excipient stock (1 M or solubility limit), 20 mM HisHCl pH 6
Protocol: Hordenine HCl was purchased from Bulk Supplements (Henderson, NV).
The concentrated protein formulation was then combined with a stock excipient solution or a control at a ratio of 9 parts protein: 1 part excipient solution or buffer (for the control), and aliquots were added to the wells of a 384 well microplate (Aurora Microplates, Whitefish, MT). […] After the microplate was shaken, 2 microliters of a 5-fold dilution of polyethylene glycol surface-modified gold nanoparticles having a diameter of 100 nm (nanoComposix, San Diego, CA) in 20 mM His HCl were added to each sample well. […] In this example, the ratio of apparent radius to the actual radius of the gold nanoparticle was multiplied by the viscosity of water at 25° C. to calculate the viscosity of the protein formulation in centipoise (cP).

[2] = test system: omalizumab; experiment: DLS viscosity of concentrated omalizumab (Example 53); assay type: physicochemical; parameters: key to DLS Viscosity, Replicate 1: observation on combining excipient with protein / DLS Viscosity, Replicate 2: observation on combining excipient with protein: * Combination of excipient with protein resulted in reversible precipitation; conditions: 20 mM HisHCl pH 6; for DLS Viscosity, Replicate 1 / DLS Viscosity, Replicate 2: concentrated omalizumab 9 parts : 1 part excipient stock (1 M or solubility limit)
Protocol: O-(octylphosphoryl)choline was purchased from Sigma Aldrich (St. […] O-(octylphosphoryl)choline was used as a stock excipient without additional preparation. […] In this example, the ratio of apparent radius to the actual radius of the gold nanoparticle was multiplied by the viscosity of water at 25° C. to calculate the viscosity of the protein formulation in centipoise (cP).

[3] = test system: bovine gamma globulin (BGG); experiment: Normalized viscosity of BGG with caffeine and a secondary excipient (Example 40); assay type: physicochemical; conditions: Excipient A caffeine 15 mg/mL + Excipient B 15 mg/mL; BGG about 280 mg/mL, 20 mM histidine pH 6, 25° C.
[4] = test system: ustekinumab; experiment: Stabilization at low pH, Sypro orange fluorescence (Example 45); conditions: excipient 5 mg/mL, ustekinumab 1 mg/mL, glycine acidification buffer pH 2.6, Sypro orange fluorescence
[5] = test system: ustekinumab; experiment: Urea denaturation, Sypro orange fluorescence (Example 44); assay type: physicochemical; conditions: excipient 5 mg/mL, ustekinumab 1 mg/mL, 6M urea, 20 mM histidine pH 6.0, Sypro orange fluorescence
Source text: It is known that urea denatures proteins in solution and causes them to unfold. The screening methodology in this example involved adding a specific concentration of urea to a therapeutic protein solution such as ustekinumab. […] One method to track protein unfolding involves the use of extrinsic fluorescent dyes such as Sypro orange. Sypro orange binds to hydrophobic regions in the unfolded protein structure, leading to an increase in the fluorescence signal observed. Measuring the differences in the fluorescence intensity of unfolded protein-Sypro orange complex in presence of different excipients thus allows one to identify any stabilizing effects.
All excipients used in this Example, listed in Table 45 below, were of the highest purity, and were obtained from Sigma Aldrich (St. Louis, MO) or Cayman Chemical (Ann Arbor, MI). […] This urea stock solution was then added to a final concentration of 6M to produce the test solutions (excipient plus protein plus urea). […] The pH of the mixture was rechecked and confirmed to be at pH 6.0. The test solutions were allowed to incubate at room temperature for 30 min.

[6] = test system: infliximab; experiment: Thermal degradation assay at 55° C., normalized monomer loss rate by HP-SEC (Example 51); assay type: physicochemical; conditions: infliximab about 2 mg/mL, 20 mM phosphate pH 7, 55° C.
Protocol: ® infliximab was obtained from the Clinigen Group and reconstituted according to the instructions in the Janssen package insert, resulting in a 10 mg/mL infliximab solution in 5 mM phosphate buffer, pH about 7, with 50 mg/mL sucrose and 0.05 mg/mL polysorbate 80. The reconstituted drug product was then combined 1:1 by volume with 50 mM sodium acetate buffer at pH 5. The resulting solution was then injected onto a small preparative scale cation exchange column (GE Healthcare, Chicago, IL). After the infliximab was loaded onto the column, the column was washed with 10 column volumes of 50 mM sodium acetate buffer, pH 5. The infliximab was then eluted from the column with five column volumes of a 250 mM sodium chloride, 50 mM sodium acetate buffer at pH 5. […] Stock solutions of either 4 or 8 mg/mL infliximab in 20 mM phosphate buffer at pH 7 were then used in subsequent tests.
All excipients used in this Example, listed in Table 52 below, were of the highest purity, and were obtained from Sigma Aldrich (St. Louis, MO) or Cayman Chemical (Ann Arbor, MI). The stock infliximab solutions were mixed with stock excipient solutions containing the excipients listed in Table 52 formulated in 20 mM phosphate buffer, pH 7 to achieve a final infliximab concentration of about 2 mg/mL in each sample. The samples containing the infliximab solutions and the stock excipient solutions were then aliquoted into five 100 μL aliquots in PCR tubes. […] These stressed samples were then analyzed for monomer content by high performance size exclusion chromatography (HP-SEC) using an Agilent 1100 series HPLC equipped with a diode array detector monitoring absorbance at 280 nm. […] For each sample, the monomer peak area was divided by the monomer peak area obtained from an identical but unstressed sample to obtain the percent monomer remaining after exposure to thermal stress. The remaining monomer as a percentage of the unstressed sample was then plotted as a function of incubation time and the absolute value of the slope of a linear fit to the data was recorded as the monomer loss rate.

[7] = Caffeine solubility with co-solutes during refrigerated storage (Example 61); assay type: physicochemical; parameters: key: (PPT)—precipitate observed; (—)—clear solution observed; conditions: 50 mM co-solute, 25 mM histidine pH 6, stored 2 to 5° C.
Protocol: The resulting microplates were then sealed with microplate tape and stored in a refrigerator with the temperature maintained in the range of 2 to 5° C. Over the course of storage, the microplates were visually observed for evidence of precipitate in the well.

[8] = concentrated omalizumab 9 parts : 1 part excipient stock

CCCCn1ccnc1 [Excipient 1-butylimidazole, 1-butylimidazole]
DLS Viscosity, Replicate 1 [1]: 40.5 cP | DLS Viscosity, Replicate 2 [1]: 74.0 cP | DLS Viscosity, Replicate 1 [2]: 16.8 cP | DLS Viscosity, Replicate 2 [2]: 15.6 cP

NC(=O)c1cccnc1 [Niacinamide]
Normalized Viscosity [3]: 0.63

CCCCCCCCOP(=O)([O-])OCC[N+](C)(C)C [O-(octylphosphoryl)choline]
DLS Viscosity, Replicate 1 [2]: 35.6 cP | DLS Viscosity, Replicate 2 [2]: 35.4 cP

CCNC(=O)CC[C@H](N)C(=O)O [Theanine]
% change in stability [4]: 8.3% | % increased stability [5]: 6.1%

NC[C@H]1O[C@H](O[C@H]2[C@H](O)[C@@H](O)[C@H](N)C[C@@H]2N)[C@H](N)[C@@H](O)[C@@H]1O [Neamine]
% change in stability [4]: 5.9% | % increased stability [5]: 2.8%

OC[C@@H](O)[C@@H](O)[C@H](O)[C@@H](O)CO [Sorbitol]
Monomer loss rate ([6]; excipient 200 mM): 0.0656 % mon/min | Normalized monomer loss rate ([6]; excipient 200 mM): 0.409

CC(O)(P(=O)(O)O)P(=O)(O)O [Etidronate]
Monomer loss rate ([6]; excipient 25 mM): 0.0824 % mon/min | Normalized monomer loss rate ([6]; excipient 25 mM): 0.514 | Monomer loss rate ([6]; excipient 50 mM): 0.0685 % mon/min | Normalized monomer loss rate ([6]; excipient 50 mM): 0.428 | Monomer loss rate ([6]; excipient 100 mM): 0.0321 % mon/min and 0.0284 % mon/min | Normalized monomer loss rate ([6]; excipient 100 mM): 0.200 and 0.177

NCCCCNCCCN [Spermidine]
% change in stability [4]: 98.1% | % increased stability [5]: 12.9%

Cl.N=C(N)NCCC[C@H](N)C(=O)O [Arg HCl]
Monomer loss rate ([6]; excipient 125 mM): 0.1186 % mon/min | Normalized monomer loss rate ([6]; excipient 125 mM): 0.740

O[C@H]1[C@H](O)[C@@H](O)CN2CC[C@H](O)[C@H]12 [Castanospermine]
% change in stability [4]: 95.9% | % increased stability [5]: 7.0%

NCCCNCCCCNCCCN [Spermine]
% change in stability [4]: 90.0% | % increased stability [5]: 16.8%

NC(=O)c1cccnc1 [Nicotinamide]
Day 1 (visual observation for precipitate) ([7]; caffeine 7.5 mg/mL): — | Day 7 (visual observation for precipitate) ([7]; caffeine 7.5 mg/mL): — | Day 18 (visual observation for precipitate) ([7]; caffeine 7.5 mg/mL): — | Day 27 (visual observation for precipitate) ([7]; caffeine 7.5 mg/mL): — | Day 56 (visual observation for precipitate) ([7]; caffeine 7.5 mg/mL): — | Day 1 (visual observation for precipitate) ([7]; caffeine 10 mg/mL): — | Day 7 (visual observation for precipitate) ([7]; caffeine 10 mg/mL): — | Day 18 (visual observation for precipitate) ([7]; caffeine 10 mg/mL): — | Day 27 (visual observation for precipitate) ([7]; caffeine 10 mg/mL): — | Day 56 (visual observation for precipitate) ([7]; caffeine 10 mg/mL): — | Day 1 (visual observation for precipitate) ([7]; caffeine 12.5 mg/mL): — | Day 7 (visual observation for precipitate) ([7]; caffeine 12.5 mg/mL): — | Day 18 (visual observation for precipitate) ([7]; caffeine 12.5 mg/mL): — | Day 27 (visual observation for precipitate) ([7]; caffeine 12.5 mg/mL): — | Day 56 (visual observation for precipitate) ([7]; caffeine 12.5 mg/mL): — | Day 1 (visual observation for precipitate) ([7]; caffeine 15 mg/mL): — | Day 7 (visual observation for precipitate) ([7]; caffeine 15 mg/mL): — | Day 18 (visual observation for precipitate) ([7]; caffeine 15 mg/mL): — | Day 27 (visual observation for precipitate) ([7]; caffeine 15 mg/mL): — | Day 56 (visual observation for precipitate) ([7]; caffeine 15 mg/mL): PPT | Day 1 (visual observation for precipitate) ([7]; caffeine 20 mg/mL): — | Day 7 (visual observation for precipitate) ([7]; caffeine 20 mg/mL): — | Day 18 (visual observation for precipitate) ([7]; caffeine 20 mg/mL): PPT | Day 27 (visual observation for precipitate) ([7]; caffeine 20 mg/mL): PPT | Day 56 (visual observation for precipitate) ([7]; caffeine 20 mg/mL): PPT | % increased stability [5]: 2.7%

CCCCCCn1ccnc1 [Excipient 1-hexylimidazole, 1-hexylimidazole]
DLS Viscosity, Replicate 1 [1]: 27.0 cP | DLS Viscosity, Replicate 2 [1]: 33.1 cP | DLS Viscosity, Replicate 1 [2]: 13.6 cP | DLS Viscosity, Replicate 2 [2]: 14.0 cP

[Cl-].[Na+] [NaCl]
Monomer loss rate ([6]; excipient 150 mM): 0.0727 % mon/min | Normalized monomer loss rate ([6]; excipient 150 mM): 0.454

O=S(=O)(O)CCN1CCN(CCO)CC1 [HEPES]
DLS Viscosity, Replicate 1 [2]: 15.9 cP | DLS Viscosity, Replicate 2 [2]: 17.4 cP

NCCSSCCN [Cystamine]
% change in stability [4]: 17.8% | % increased stability [5]: 8.8%

CCN(CC)CCOC(=O)C1(C2CCCCC2)CCCCC1 [Dicyclomine HCl]
DLS Viscosity, Replicate 1: observation on combining excipient with protein [2, 8]: * | DLS Viscosity, Replicate 2: observation on combining excipient with protein [2, 8]: *

OC(CCN1CCCCC1)(c1ccccc1)c1ccccc1 [Pridinol Methanesulfonate]
DLS Viscosity, Replicate 1 [2]: 45.5 cP | DLS Viscosity, Replicate 2 [2]: 36.2 cP
